“And” between values parts separate entries of the source, which are not always exact repeats. Equal values may be shown once. Inconclusive results and toxic doses are left out. No stated cut-off is given here; in the data, active means T/C of 150% or more; inactive means T/C below 125%.
Tested on: L1210 leukemia ip in BDF1 mice, survival T/C
Experiment: NCI In Vivo Anticancer Drug Screen. Data for tumor model L1210 Leukemia (intraperitoneal) in B6D2F1 (BDF1) mice
Conditions: endpoint: mean survival time, higher = longer survival
Procedure, shortened: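 In this screen, tumor-bearing mice given compound are compared to those given vehicle, and their survival values are reported as a treated-to-control quotient.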

[1] = dose: 100.0 mg/kg/injection, schedule: Q01DX009 (ip), vehicle: Klucel (hydroxypropylcellulose) (HPC)
[2] = dose: 200.0 mg/kg/injection, schedule: Q01DX009 (ip), vehicle: Klucel (hydroxypropylcellulose) (HPC)
[3] = dose: 400.0 mg/kg/injection, schedule: Q01DX009 (ip), vehicle: Klucel (hydroxypropylcellulose) (HPC)
[4] = dose: 100.0 mg/kg/injection, schedule: Q04DX002 (ip), vehicle: Klucel (hydroxypropylcellulose) (HPC)
[5] = dose: 200.0 mg/kg/injection, schedule: Q04DX002 (ip), vehicle: Klucel (hydroxypropylcellulose) (HPC)
[6] = dose: 400.0 mg/kg/injection, schedule: Q04DX002 (ip), vehicle: Klucel (hydroxypropylcellulose) (HPC)
[7] = dose: 5.0 mg/kg/injection, schedule: Q01DX001 (ip), vehicle: saline
[8] = dose: 10.0 mg/kg/injection, schedule: Q01DX001 (ip), vehicle: saline
[9] = dose: 20.0 mg/kg/injection, schedule: Q01DX001 (ip), vehicle: saline
[10] = dose: 40.0 mg/kg/injection, schedule: Q01DX001 (ip), vehicle: saline
[11] = dose: 100.0 mg/kg/injection, schedule: Q01DX001 (ip), vehicle: saline
[12] = dose: 200.0 mg/kg/injection, schedule: Q01DX001 (ip), vehicle: saline
[13] = dose: 400.0 mg/kg/injection, schedule: Q01DX001 (ip), vehicle: saline
[14] = dose: 100.0 mg/kg/injection, schedule: Q01DX001 (ip), vehicle: Klucel (hydroxypropylcellulose) (HPC)
[15] = dose: 200.0 mg/kg/injection, schedule: Q01DX001 (ip), vehicle: Klucel (hydroxypropylcellulose) (HPC)
[16] = dose: 400.0 mg/kg/injection, schedule: Q01DX001 (ip), vehicle: Klucel (hydroxypropylcellulose) (HPC)
[17] = dose: 100.0 mg/kg/injection, schedule: Q01DX009 (ip), vehicle: saline with Tween-80
[18] = dose: 200.0 mg/kg/injection, schedule: Q01DX009 (ip), vehicle: saline with Tween-80
[19] = dose: 400.0 mg/kg/injection, schedule: Q01DX009 (ip), vehicle: saline with Tween-80
[20] = dose: 100.0 mg/kg/injection, schedule: Q01DX001 (ip), vehicle: carboxymethylcellulose (CMC)
[21] = dose: 200.0 mg/kg/injection, schedule: Q01DX001 (ip), vehicle: carboxymethylcellulose (CMC)
[22] = dose: 400.0 mg/kg/injection, schedule: Q01DX001 (ip), vehicle: carboxymethylcellulose (CMC)

Measured: T/C

O=[N+]([O-])c1cc2c3ccccc3c(F)cc2c2ccccc12
inactive: [1] 98 % of control | dose: 100.0 mg/kg/injection, schedule: Q04DX003 (ip), vehicle: Klucel (hydroxypropylcellulose) (HPC) 96 % of control | [2] 98 % of control | dose: 200.0 mg/kg/injection, schedule: Q04DX003 (ip), vehicle: Klucel (hydroxypropylcellulose) (HPC) 91 % of control | [3] 98 % of control | dose: 400.0 mg/kg/injection, schedule: Q04DX003 (ip), vehicle: Klucel (hydroxypropylcellulose) (HPC) 101 % of control

O=C(/C=C/c1ccc2c(c1)OCO2)c1cccc([N+](=O)[O-])c1
inactive: [4] 93 % of control | [5] 104 % of control | [6] 100 % of control

O=C(/C=C/C(=O)Nc1cccc(C2=NCCN2)c1)Nc1cccc(C2=NCCN2)c1
inactive: dose: 3.75 mg/kg/injection, schedule: Q01DX Z (ip), vehicle: carboxymethylcellulose (CMC) 94 % of control | dose: 7.5 mg/kg/injection, schedule: Q01DX Z (ip), vehicle: carboxymethylcellulose (CMC) 94 % of control | dose: 15.0 mg/kg/injection, schedule: Q01DX Z (ip), vehicle: carboxymethylcellulose (CMC) 94 % of control

O=C(Nc1cccc(Cl)c1)OCC#CCN1CCCC1
inactive: [7] 105 % of control | dose: 9.0 mg/kg/injection, schedule: Q01DX001 (ip), vehicle: saline 95 % of control and 101 % of control | [8] 105 % of control | dose: 13.0 mg/kg/injection, schedule: Q01DX001 (ip), vehicle: saline 97 % of control and 104 % of control | [9] 98 % of control and 101 % of control | dose: 30.0 mg/kg/injection, schedule: Q01DX001 (ip), vehicle: saline 98 % of control and 101 % of control | [10] 101 % of control | dose: 80.0 mg/kg/injection, schedule: Q01DX001 (ip), vehicle: saline 111 % of control

Cc1ccc(/C=N/NC(=O)c2ccccc2NC(=O)c2ccccc2)cc1
inactive: [1] 105 % of control | [2] 97 % of control | [3] 95 % of control

Cc1cc(OCCOC(=O)Nc2ccccc2F)cc(C)c1Cl
inactive: [1] 93 % of control | [2] 101 % of control | [3] 103 % of control

Oc1cccnc1I
inactive: dose: 50.0 mg/kg/injection, schedule: Q01DX001 (ip), vehicle: saline 102 % of control | [11] 98 % of control | [12] 98 % of control | [13] 102 % of control

O=c1[nH]nc(SCc2ccccc2)c(=O)[nH]1
inactive: [11] 108 % of control | [12] 92 % of control | [13] 109 % of control

Nc1ccc2c(c1)C(=O)c1ccccc1-2
inactive: [14] 88 % of control | [15] 95 % of control | [16] 97 % of control

COC(=O)C1(C)CCCC2(C)C1CCC13OCC(CC21)C(=C(C)C)C3OC(C)=O (stereo unspecified)
inactive: [17] 93 % of control | [18] 88 % of control | [19] 90 % of control

O=C(O)COc1cccc2ccc(Cl)cc12
inactive: [4] 101 % of control | [5] 90 % of control | [6] 96 % of control

CC(C)OC(=O)Nc1ccccc1
inactive: [1] 93 % of control | [4] 102 % of control | [2] 93 % of control | [5] 112 % of control | [3] 110 % of control | [6] 115 % of control

CCCCCCC(=O)/C=C/c1ccc(Cl)c(Cl)c1
inactive: dose: 100.0 mg/kg/injection, schedule: Q01DX009 (ip), vehicle: acetone 92 % of control | dose: 100.0 mg/kg/injection, schedule: Q04DX003 (ip), vehicle: acetone 101 % of control | dose: 200.0 mg/kg/injection, schedule: Q01DX009 (ip), vehicle: acetone 92 % of control | dose: 200.0 mg/kg/injection, schedule: Q04DX003 (ip), vehicle: acetone 93 % of control | dose: 400.0 mg/kg/injection, schedule: Q04DX003 (ip), vehicle: acetone 98 % of control

C/C=C\c1ccc(OCCOC(=O)Nc2cccc(C(F)(F)F)c2)c(OC)c1
inactive: dose: 50.0 mg/kg/injection, schedule: Q01DX009 (ip), vehicle: saline with Tween-80 102 % of control | [17] 98 % of control and 91 % of control | [18] 95 % of control and 90 % of control | [19] 98 % of control

O=C1c2ccccc2C(=Cc2ccccc2)c2ccccc21
inactive: [17] 107 % of control | dose: 100.0 mg/kg/injection, schedule: Q04DX003 (ip), vehicle: saline with Tween-80 101 % of control | [18] 107 % of control | dose: 200.0 mg/kg/injection, schedule: Q04DX003 (ip), vehicle: saline with Tween-80 100 % of control | [19] 104 % of control | dose: 400.0 mg/kg/injection, schedule: Q04DX003 (ip), vehicle: saline with Tween-80 92 % of control

COc1ccc(CC2C(=O)NC(C)C(=O)N(C)C3C(=O)N(C)C(Cc4ccc(O)c(c4)Oc4ccc(cc4)C3O)C(=O)NC(C)C(=O)NC(C)C(=O)N2C)cc1 (stereo unspecified) (tested in a mixture with another compound)
inactive: dose: 0.25 mg/kg/injection, schedule: Q01DX009 (ip), vehicle: saline 112 % of control | dose: 0.5 mg/kg/injection, schedule: Q01DX009 (ip), vehicle: carboxymethylcellulose (CMC) 114 % of control | dose: 0.5 mg/kg/injection, schedule: Q01DX009 (ip), vehicle: saline 122 % of control | dose: 1.0 mg/kg/injection, schedule: Q01DX009 (ip), vehicle: carboxymethylcellulose (CMC) 115 % of control | dose: 1.0 mg/kg/injection, schedule: Q01DX009 (ip), vehicle: saline 120 % of control | dose: 2.0 mg/kg/injection, schedule: Q01DX009 (ip), vehicle: carboxymethylcellulose (CMC) 117 % of control | dose: 2.0 mg/kg/injection, schedule: Q01DX009 (ip), vehicle: saline 117 % of control

CC1(C)c2ccc([nH]2)C(C)(C)c2ccc([nH]2)C(C)(C)c2c[nH]cc2C(C)(C)c2ccc1[nH]2
inactive: [11] 102 % of control | [12] 94 % of control | [13] 97 % of control

O=C1c2ccccc2-c2ccc(Cl)cc21
inactive: [20] 96 % of control | [21] 96 % of control | [22] 96 % of control

CCOC(=O)c1cc(C)[nH]c1C
inactive: dose: 100.0 mg/kg/injection, schedule: Q01DX009 (ip), vehicle: gum acacia 100 % of control | dose: 200.0 mg/kg/injection, schedule: Q01DX009 (ip), vehicle: gum acacia 95 % of control | dose: 400.0 mg/kg/injection, schedule: Q01DX009 (ip), vehicle: gum acacia 105 % of control

CC(=O)NC1CCC(Br)CC1 (stereo unspecified)
inactive: dose: 50.0 mg/kg/injection, schedule: Q01DX009 (ip), vehicle: Klucel (hydroxypropylcellulose) (HPC) 94 % of control | [1] 105 % of control | [2] 102 % of control

CCOC(=O)Nc1cc(N(C)CC(O)CN(C)c2ccccc2)c([N+](=O)[O-])c(N)n1 (stereo unspecified)
inactive: [14] 101 % of control | [15] 104 % of control | [16] 97 % of control

CC(C)N(CCSC(=O)N1c2ccccc2Sc2cccnc21)C(C)C
inactive: dose: 5.0 mg/kg/injection, schedule: Q04DX003 (ip), vehicle: Klucel (hydroxypropylcellulose) (HPC) 90 % of control | dose: 10.0 mg/kg/injection, schedule: Q04DX003 (ip), vehicle: Klucel (hydroxypropylcellulose) (HPC) 110 % of control

CCCCCC(=O)OC1(C(C)=O)CCC2C3CCC4=CC(=O)CCC4C3CCC21C (stereo unspecified)
inactive: dose: 12.5 mg/kg/injection, schedule: Q04DX002 (ip), vehicle: Klucel (hydroxypropylcellulose) (HPC) 94 % of control | dose: 25.0 mg/kg/injection, schedule: Q04DX002 (ip), vehicle: Klucel (hydroxypropylcellulose) (HPC) 90 % of control | dose: 50.0 mg/kg/injection, schedule: Q04DX002 (ip), vehicle: Klucel (hydroxypropylcellulose) (HPC) 94 % of control

CC1(C)CC(=O)C(C23C=CC2=C(CO)C(=O)OC3)C1 (stereo unspecified)
inactive: [7] 96 % of control | [8] 96 % of control | [9] 98 % of control | [10] 110 % of control

CCN(Cc1ccccc1)C(=O)Nc1ccc(OC)cc1
inactive: [1] 103 % of control | [2] 97 % of control | [3] 106 % of control

CC(CO)(CO)N=Cc1cccc([N+](=O)[O-])c1
inactive: dose: 50.0 mg/kg/injection, schedule: Q01DX001 (ip), vehicle: carboxymethylcellulose (CMC) 103 % of control | [20] 103 % of control | [21] 103 % of control | [22] 97 % of control
